In paper PMC12856912, “Structure-Guided Semisynthesis of Blasticidin S–Amicetin Chimeras as Selective Ribosome Inhibitors” (Journal of the American Chemical Society, 2026):
Values after ≈ are worked out from the molar mass of the structure shown. Like-named read-outs stand apart in the source and are kept apart here.

Legend:
[1] = test system: S. aureus ATCC 6538P; test: Antibacterial MIC assay, serial dilution; assay type: cell-based, Staphylococcus aureus; details: for Selectivity index (CC50/MIC) S. aureus 6538P: CC50 Vero cells / MIC; for MIC: Staphylococcus aureus, ATCC 6538P / ATCC 6539P, read-out: MIC S. aureus ATCC 6539P
Method in brief: (§1)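 CAMHB microdilution; inoculum OD600 0.004 (from mid-log ~0.5); cpd 128–1 μg/mL final, from 50% DMSO/water dilutions; 37 °C, 16–18 h, VRE 24 h; OD600; MIC at >90% inhibition.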

[2] = test system: MRSA ATCC 43300; test: Antibacterial MIC assay, serial dilution; assay type: cell-based, Staphylococcus aureus; details: for Selectivity index (CC50/MIC) MRSA 43300: CC50 Vero cells / MIC; for MIC: Staphylococcus aureus, read-out: MIC MRSA ATCC 43300
Method in brief: as §1

[3] = test system: S. aureus ΔNorA; test: Antibacterial MIC assay, serial dilution; assay type: cell-based, Staphylococcus aureus; details: for Selectivity index (CC50/MIC) S. aureus ΔNorA: CC50 Vero cells / MIC; for MIC: Staphylococcus aureus, read-out: MIC S. aureus ∆NorA
Method in brief: as §1

[4] = test system: Escherichia coli BAA-2452; test: Antibacterial MIC assay, serial dilution; assay type: cell-based; details: BAA2452, read-out: MIC Escherichia coli BAA-2452
[5] = test system: Klebsiella pneumoniae ATCC 29665; test: Antibacterial MIC assay, serial dilution; assay type: cell-based; details: for MIC: Klebsiella pneumoniae, ATCC29665, range from biological replicates, read-out: MIC K. pneumoniae ATCC-29665
Method in brief: as §1

[6] = test system: Pseudomonas aeruginosa; test: Antibacterial MIC assay, serial dilution; assay type: cell-based; details: for MIC: Pseudomonas aeruginosa, range from biological replicates, read-out: MIC P. aeruginosa
Method in brief: as §1

[7] = test system: Vancomycin resistant Enterococcus faecium NR-31909 (VRE); test: Antibacterial MIC assay, serial dilution; assay type: cell-based; details: for Selectivity index (CC50/MIC) VRE NR-31909: CC50 Vero cells / MIC; for MIC: Enterococcus faecium, VRE, 24 h, read-out: MIC Vancomycin resistant Enterococcus faecium NR-31909 (VRE)
Method in brief: as §1

[8] = test system: Enterococcus faecalis ATCC 29212; test: Antibacterial MIC assay, serial dilution; assay type: cell-based; details: for Selectivity index (CC50/MIC) E. faecalis 29212: CC50 Vero cells / MIC; for MIC: Enterococcus faecalis, ATCC 29112 / ATCC 29212, 24 h, read-out: MIC E. faecalis ATCC 29112
[9] = test system: Acinetobacter baumannii ATCC 17978; test: Antibacterial MIC assay, serial dilution; assay type: cell-based; details: ATCC17978, range from biological replicates
Method in brief: as §1

[10] = test system: MRSA USA-300; assay type: cell-based, Staphylococcus aureus; details: for log reduction in time-kill assay: after 24 h
Procedure: MRSA USA-300 was grown overnight in cation- adjusted Muell er-Hinton broth (CAMHB), then subcultured into fresh CAMHB and incubated aerobi cally at 37°C until reaching the logarithmic phase, corresponding to an optical density (OD₆₀₀) of 0.2. The bacterial cultures were further diluted to adjust to a final concentration of 5 × 10⁵ CFU/mL in CAMHB. P3, P5, vancomycin and linezolid, were added at concentrations of 5× and 10× MIC. A DMSO-treated […]
culture serv ed as an untreated control. The cultures were aerobically maintai ned at 37°C in shaking incubator. At specifi c sampling times, aliquots were collected, resuspended in phosphate-buffered saline (PBS) and distributed to three replicates on tryptic soy agar (TSA). After a 24-hour incubation period at 37°C, the number of colony- forming units (CFUs) was evaluated.
F i g u re S 1. Time kill results against MRSA USA 300 at 5X and 10X MIC. Compound P3 ( 38) is shown as red squares, compound P5( 40) is shown as green tri angles. Vancomycin (inverted purple triangle) is used as a b act ericidal control and linezolid (orange diamond) as a bacteriostatic control with DMSO (blue circles ) as a neg ative control. […]

[11] = Cytotoxicity assay (MTS/PMS); assay type: cell-based; details: monkey, Vero cells (monkey kidney epithelial cells); 24 h treatment, MTS/PMS, average of three biological replicates; read-out: CC50 against Vero cells
Method in brief: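 Vero cells were allowed to adhere for 24 h in DMEM with 10% FBS at 37 °C, then exposed to serial compound dilutions for 24 h. Viability was measured by MTS/PMS (4 h, absorbance at 490 nm) and normalized to vehicle. CC50 is the concentration giving 50% viability, averaged over three biological replicates.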

[12] = test system: Vancomycin resistant E. faecalis NR-31972 (VRE); test: Antibacterial MIC assay, serial dilution; assay type: cell-based, Enterococcus faecalis; details: for Selectivity index (CC50/MIC) VRE NR-31972: CC50 Vero cells / MIC; for MIC: Enterococcus faecalis, VRE, 24 h, read-out: MIC Vancomycin resistant E. faecalis NR-31972 (VRE)
Method in brief: as §1

[13] = test system: Methicillin resistant Staphylococcus epidermidis (MRSE) ATCC 35984 NRS101; test: Antibacterial MIC assay, serial dilution; assay type: cell-based; details: for Selectivity index (CC50/MIC) MRSE 35984: CC50 Vero cells / MIC; for MIC: Staphylococcus epidermidis, read-out: MIC Methicillin resistant Staphylococcus epidermidis (MRSE) ATCC 35984 NRS101

Structure (SMILES)	Selectivity index (CC50/MIC) S. aureus 6538P [1]	MIC [1]	Selectivity index (CC50/MIC) MRSA 43300 [2]	MIC [2]	Selectivity index (CC50/MIC) S. aureus ΔNorA [3]	MIC [3]	MIC [4]	MIC [5]	MIC [6]	Selectivity index (CC50/MIC) VRE NR-31909 [7]	MIC [7]	Selectivity index (CC50/MIC) E. faecalis 29212 [8]	MIC [8]	MIC [9]	bacteriostatic or bactericidal effect in time-kill assay ([10]; 5× MIC and 10× MIC)	CC50 at 24 h [11]	Selectivity index (CC50/MIC) VRE NR-31972 [12]	MIC [12]	Selectivity index (CC50/MIC) MRSE 35984 [13]	MIC [13]	other results
CNc1ccc(C(=O)Nc2ccn([C@H]3C=C[C@H](NC(=O)C[C@@H](N)CCN(C)C(=N)N)[C@@H](C(=O)NCCc4ccccc4)O3)c(=O)n2)cc1 [Blastimidine P3]	>12	16 to 32 µg/mL (≈ 24.3 to 48.6 µM)	>3.0	64 to 128 µg/mL (≈ 97.2 to 194 µM)	>48	4 to 8 µg/mL (≈ 6.07 to 12.1 µM)	64 µg/mL (≈ 97.2 µM)	> 128 µg/mL	64 to 128 µg/mL (≈ 97.2 to 194 µM)	>2.0	128 µg/mL (≈ 194 µM)	>24	8 to 16 µg/mL (≈ 12.1 to 24.3 µM)	> 128 µg/mL	bacteriostatic activity	> 256 µg/mL	>16	16 µg/mL (≈ 24.3 µM)	>32	8 µg/mL (≈ 12.1 µM)	Selectivity index (CC50/MIC) P. aeruginosa ([6]; CC50 Vero cells / MIC): >3.0; log reduction in time-kill assay ([10]; 5× MIC): 2.5 log; log reduction in time-kill assay ([10]; 10× MIC): 2.7 log
CN(CC[C@H](N)CC(=O)N[C@H]1C=C[C@H](n2ccc(NC(=O)c3ccc(NC(=O)[C@@](C)(N)CO)cc3)nc2=O)O[C@@H]1C(=O)NCCc1ccccc1)C(=N)N [Blastimidine P5]	>16	16 µg/mL (≈ 21.5 µM)	>8.0	32 µg/mL (≈ 42.9 µM)	>16	16 µg/mL (≈ 21.5 µM)	128 µg/mL (≈ 172 µM)	64 to 128 µg/mL (≈ 85.8 to 172 µM)	> 128 µg/mL	>11	16 to 32 µg/mL (≈ 21.5 to 42.9 µM)	>8.0	32 µg/mL (≈ 42.9 µM)	> 128 µg/mL	bactericidal activity	> 256 µg/mL	>8.0	32 µg/mL (≈ 42.9 µM)	>16	16 µg/mL (≈ 21.5 µM)	Selectivity index (CC50/MIC) K. pneumoniae ([5]; CC50 Vero cells / MIC): >3.0; clearance in time-kill assay ([10]; 5× MIC and 10× MIC, within 24 h): complete clearance
